# According to the supplement of paper PMC10307832:
# Compound: Cc1ccccc1C(C(=O)NC1CCCCC1)N(C(=O)Cn1ccnc1C)c1cccc(F)c1 [IDH-C35] + Cc1nc(Nc2ncc(C(=O)Nc3c(C)cccc3Cl)s2)cc(N2CCN(CCO)CC2)n1 [Dasatinib] (partner 0.075 µM)
# Test: relative viability (nuclei count vs DMSO), 5 days (fraction); higher = more cells survive
# Settings: first compound 8 µM
# How it was run: (§1)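 Relative viability divides the nuclei count in treated wells by that in vehicle wells. Lung cancer cell lines were seeded in 1536-well plates, dosed by pin tool the next day, and fixed and stained after 5 days in one step with final 0.05% Triton X-100, 1% formaldehyde and 1 ug/ml Hoechst. Dosing was a single drug or a fixed anchor-drug dose plus five library-drug doses (not always all listed) in √10 steps, and values are medians of duplicate plates imaged at 4×.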
row,Cell Line,relative viability
1,NCI-H1355,0.742

# Compound: CC1=C(C(=NN1)C)CC2=C(C3=C(S2)N(C(=O)N(C3=O)C)CC(C)C)C(=O)N4C[C@@H](CO4)O + Nc1nc2[nH]cc(CCc3ccc(C(=O)N[C@@H](CCC(=O)O)C(=O)O)cc3)c2c(=O)[nH]1 [Pemetrexed] (partner 0.2 µM)
# Test: as above
# Settings: first compound 0.0025 µM
# How it was run: as §1
row,Cell Line,relative viability
1,H3255,0.632
2,COR-L23,0.22
3,COR-L 105,1.27
4,LOU-NH91,0.404
5,ChaGo-K-1,0.26
6,NCI-H2405,1.15
7,HOP-62,0.357
8,LU99A,0.18
9,BEN,0.697
10,HARA,0.218
11,HCC-78,0.904
12,NCI-H322M,0.526
13,LCLC-97TM1,0.179
14,NCI-H2009,1.09
15,A-427,1
16,NCI-H441,0.253

row,Cell Line,relative viability
1,NCI-H661,0.922
2,NCI-H1734,0.412
3,NCI-H460,0.0637
4,NCI-H2347,0.434
5,SK-LU-1,0.96
6,201T,0.311
7,NCI-H1915,0.497
8,HCC-827,0.245
9,LXF-289,0.88
10,NCI-H23,0.825
11,NCI-H647,0.194
12,CAL-12T,1.28
13,NCI-H1651,0.587
14,EPLC-272H,0.356
15,NCI-H2228,0.317
16,NCI-H1355,1.09

# Same assay, conditions: first compound 0.007906 µM
row,Cell Line,relative viability
1,H3255,0.576
2,COR-L23,0.214
3,COR-L 105,1.15
4,LOU-NH91,0.362
5,ChaGo-K-1,0.261
6,NCI-H2405,1.22
7,HOP-62,0.332
8,LU99A,0.175
9,BEN,0.836
10,HARA,0.215
11,HCC-78,0.887
12,NCI-H322M,0.61
13,LCLC-97TM1,0.19
14,NCI-H2009,1.03
15,A-427,1.07
16,NCI-H441,0.299

row,Cell Line,relative viability
1,NCI-H661,0.973
2,NCI-H1734,0.426
3,NCI-H460,0.0564
4,NCI-H2347,0.438
5,SK-LU-1,0.719
6,201T,0.342
7,NCI-H1915,0.465
8,HCC-827,0.27
9,LXF-289,0.811
10,NCI-H23,0.635
11,NCI-H647,0.177
12,CAL-12T,1.36
13,NCI-H1651,0.598
14,EPLC-272H,0.333
15,NCI-H2228,0.342
16,NCI-H1355,1.08

# Same assay, conditions: first compound 0.025 µM
row,Cell Line,relative viability
1,H3255,0.496
2,COR-L23,0.195
3,COR-L 105,1.06
4,LOU-NH91,0.402
5,ChaGo-K-1,0.261
6,NCI-H2405,1.03
7,HOP-62,0.217
8,LU99A,0.159
9,BEN,0.558
10,HARA,0.262
11,HCC-78,0.897
12,NCI-H322M,0.645
13,LCLC-97TM1,0.173
14,NCI-H2009,0.955
15,A-427,0.935
16,NCI-H441,0.263

row,Cell Line,relative viability
1,NCI-H661,0.899
2,NCI-H1734,0.436
3,NCI-H460,0.0621
4,NCI-H2347,0.41
5,SK-LU-1,0.736
6,201T,0.322
7,NCI-H1915,0.466
8,HCC-827,0.272
9,LXF-289,0.751
10,NCI-H23,0.689
11,NCI-H647,0.173
12,CAL-12T,0.956
13,NCI-H1651,0.531
14,EPLC-272H,0.41
15,NCI-H2228,0.339
16,NCI-H1355,1.04

# Same assay, conditions: first compound 0.07906 µM
row,Cell Line,relative viability
1,H3255,0.618
2,COR-L23,0.223
3,COR-L 105,1.24
4,LOU-NH91,0.366
5,ChaGo-K-1,0.254
6,NCI-H2405,1
7,HOP-62,0.281
8,LU99A,0.211
9,BEN,0.665
10,HARA,0.273
11,HCC-78,0.951
12,NCI-H322M,0.629
13,LCLC-97TM1,0.152
14,NCI-H2009,1.03
15,A-427,0.906
16,NCI-H441,0.244

row,Cell Line,relative viability
1,NCI-H661,0.924
2,NCI-H1734,0.467
3,NCI-H460,0.0635
4,NCI-H2347,0.378
5,SK-LU-1,0.745
6,201T,0.309
7,NCI-H1915,0.497
8,HCC-827,0.288
9,LXF-289,0.922
10,NCI-H23,0.697
11,NCI-H647,0.199
12,CAL-12T,1.08
13,NCI-H1651,0.56
14,EPLC-272H,0.301
15,NCI-H2228,0.322
16,NCI-H1355,0.847

# Same assay, conditions: first compound 0.25 µM
row,Cell Line,relative viability
1,H3255,0.563
2,COR-L23,0.204
3,COR-L 105,1.35
4,LOU-NH91,0.365
5,ChaGo-K-1,0.249
6,NCI-H2405,0.795
7,HOP-62,0.356
8,LU99A,0.179
9,BEN,0.687
10,HARA,0.255
11,HCC-78,0.925
12,NCI-H322M,0.578
13,LCLC-97TM1,0.202
14,NCI-H2009,1.06
15,A-427,0.983
16,NCI-H441,0.263
17,NCI-H661,0.899
18,NCI-H1734,0.423
19,NCI-H460,0.0733
20,NCI-H2347,0.383
21,SK-LU-1,0.846
22,201T,0.32
23,NCI-H1915,0.53
24,HCC-827,0.237
25,LXF-289,0.975
26,NCI-H23,0.697
27,NCI-H647,0.195
28,CAL-12T,1.38
29,NCI-H1651,0.53
